Molecules are shown by their SMILES. Structures can show the parent of a compound that is named as a salt.

Experiment [1] has as its target T1, human norepinephrine transporter (hNET) (Homo sapiens, UniProt P23975).
T1 construct: expressed in transfected cells; host or cells: HEK-293, membranes
As to the kind of experiment: hNET receptor binding, [125I]-RTI-55, HEK-293 membranes. The following applies: Cheng-Prusoff, read-out: NET Ki. As to the method:
Cell pastes of HEK-293 cells transfected with a human norepinephrine transporter cDNA were prepared. The cell pastes were resuspended in 400 to 700 ml of Krebs-HEPES assay buffer (25 mM HEPES, 122 mM NaCl, 3 mM KCl, 1.2 mM MgSO4, 1.3 mM CaCl2, and 11 mM glucose, pH 7.4) with a Polytron homogenizer at setting 7 for 30 seconds. Aliquots of membranes (5 mg/ml protein) were stored in liquid nitrogen until used.
The binding assay was set up in Beckman deep-well polypropylene plates with a total volume of 250 μl containing: drug (10^−5M to 10^−12M), cell membranes, and […] [^125I]-RTI-55 (Perkin Elmer, NEX-272; specific activity 2200 Ci/mmol). The reaction was incubated by gentle agitation for 90 minutes at room temperature and was terminated by filtration through Whatman GF/C filter plates using a Brandel 96-well plate harvester. Scintillation fluid (100 μl) was added to each well, and bound [^125I]-RTI-55 was determined using a Wallac Trilux Beta Plate Counter. Test compounds were run in duplicate, and specific binding was defined as the difference between binding in the presence and absence of 10 μM desipramine.
Excel and GraphPad Prism software were used for data calculation and analysis. IC50 values were converted to Ki values using the Cheng-Prusoff equation. The Ki values (nM) for the hNET are reported below in Table 1.

Experiment [2] deals with T2, human serotonin transporter (hSERT) (Homo sapiens, UniProt P31645).
T2 construct: expressed in transfected cells; host or cells: HEK-293, membranes
Briefly: hSERT receptor binding, [125I]-RTI-55, HEK-293 membranes. The following applies: [125I]-RTI-55, HEK-293 membranes, Cheng-Prusoff; read-out: SERT Ki. The method, then:
Cell pastes of HEK-293 cells transfected with a human serotonin transporter cDNA were prepared. […] Aliquots of membranes (−2.5 mg/ml protein) were stored in liquid nitrogen until used.
The reaction was incubated and gently agitated for 90 minutes at room temperature, and terminated by removal of assay volume. […] Test compounds were run in duplicate, and specific binding was defined as the difference between binding in the presence and absence of 10 μM citalopram. Excel and GraphPad Prism software were used for data calculation and analysis. IC50 values were converted to Ki values using the Cheng-Prusoff equation.

T2 sequence (P31645 whole entry): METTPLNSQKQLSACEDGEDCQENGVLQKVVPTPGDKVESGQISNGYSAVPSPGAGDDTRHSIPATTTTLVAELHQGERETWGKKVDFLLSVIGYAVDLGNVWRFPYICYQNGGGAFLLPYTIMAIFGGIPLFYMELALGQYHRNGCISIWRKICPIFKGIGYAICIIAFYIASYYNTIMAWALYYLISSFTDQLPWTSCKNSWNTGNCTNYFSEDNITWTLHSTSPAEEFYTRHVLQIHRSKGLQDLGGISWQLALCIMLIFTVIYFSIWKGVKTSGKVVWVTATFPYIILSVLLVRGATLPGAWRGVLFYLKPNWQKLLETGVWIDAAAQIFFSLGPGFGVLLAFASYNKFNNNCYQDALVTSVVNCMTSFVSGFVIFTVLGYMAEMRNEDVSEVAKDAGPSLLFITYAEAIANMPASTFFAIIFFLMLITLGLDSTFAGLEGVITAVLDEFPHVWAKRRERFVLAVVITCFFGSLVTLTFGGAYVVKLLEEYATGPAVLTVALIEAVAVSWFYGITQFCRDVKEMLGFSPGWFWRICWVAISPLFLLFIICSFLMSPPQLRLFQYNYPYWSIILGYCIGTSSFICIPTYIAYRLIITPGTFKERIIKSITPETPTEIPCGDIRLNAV
T1 sequence (P23975 whole entry): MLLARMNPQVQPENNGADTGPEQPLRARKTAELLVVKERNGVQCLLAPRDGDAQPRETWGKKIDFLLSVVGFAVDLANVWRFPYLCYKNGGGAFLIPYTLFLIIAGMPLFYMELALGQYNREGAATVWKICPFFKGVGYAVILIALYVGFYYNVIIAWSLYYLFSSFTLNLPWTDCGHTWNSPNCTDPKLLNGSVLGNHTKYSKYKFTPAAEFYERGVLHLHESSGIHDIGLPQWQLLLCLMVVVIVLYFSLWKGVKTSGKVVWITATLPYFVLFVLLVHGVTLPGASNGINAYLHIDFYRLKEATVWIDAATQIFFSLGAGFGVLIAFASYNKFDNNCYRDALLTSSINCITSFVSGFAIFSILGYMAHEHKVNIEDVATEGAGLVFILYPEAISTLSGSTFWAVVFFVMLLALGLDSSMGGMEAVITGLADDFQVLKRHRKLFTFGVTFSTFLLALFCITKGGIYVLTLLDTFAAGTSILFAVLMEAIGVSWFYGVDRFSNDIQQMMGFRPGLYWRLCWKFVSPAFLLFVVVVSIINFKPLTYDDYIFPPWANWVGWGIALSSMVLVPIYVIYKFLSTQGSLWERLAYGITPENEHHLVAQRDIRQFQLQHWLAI

With `Fc1cc(Cl)ccc1O[C@@H](c1ccccn1)[C@@H]1CNCCO1` [Example 104, (2S)-2-[(1S)-(4-chloro-2-fluorophenoxy)(pyridin-2-yl)methyl]morpholine fumarate], the Ki is 21.1 nM in experiment [1] and 486 nM in experiment [2].

For the compound `COc1cc(Cl)ccc1O[C@@H](c1cccc(Cl)c1)[C@@H]1CNCCO1` [Example 100, (2S)-2-[(1S)-(4-Chloro-2-methoxyphenoxy) (3-chloro phenyl)methyl] morpholine fumarate], the Ki is 33 nM in experiment [1] and 32.9 nM in experiment [2].

Regarding `COc1ccc(Cl)cc1O[C@@H](c1ccccc1)[C@@H]1CNCCO1` [Example 84, (2S)-2-[(1S)-(5-Chloro-2-methoxyphenoxy)phenylmethyl]morpholine fumarate], the Ki in experiment [1] stood at 10.1 nM; in experiment [2], 437 nM.

Regarding `COc1cc(F)ccc1O[C@@H](c1cccc(C)c1)[C@@H]1CNCCO1` [Example 57, (2S)-2-[(1S)-(4-Fluoro-2-methoxyphenoxy)-m-tolyl-methyl] morpholine hydrochloride], the results for the Ki in experiment [1] and in experiment [2] were 19.7 nM and 544 nM, respectively.

As for `COc1cc(C)ccc1O[C@@H](c1cccc(C)c1)[C@@H]1CNCCO1` [Example 55, (2S)-2-[(1S)-(2-Methoxy-4-methylphenoxy)-m-tolyl-methyl] morpholine hydrochloride], the Ki in experiment [1] came out at 20.4 nM; in experiment [2], 109 nM.

For the compound `Cc1ccccc1O[C@@H](c1cccc(F)c1)[C@@H]1CNCCO1` [Example 49, (2S)-2-[(1S)-(3-Fluorophenyl)-o-tolyloxy-methyl] morpholine hydrochloride], the Ki was found to be 6.8 nM in experiment [1] and 194 nM in experiment [2].

For the compound `COc1cc(C)ccc1O[C@@H](c1cccc(Cl)c1)[C@@H]1CNCCO1` [Example 101, (2S)-2-[(1S)-(3-Chlorophenyl) (2-methoxy-4-methyl phenoxy)methyl] morpholine fumarate], the Ki in experiment [1] was found to be 19.4 nM; in experiment [2], 67.1 nM.

`COc1cccc(F)c1O[C@@H](c1cccc(F)c1)[C@@H]1CNCCO1` [Example 50, (2S)-2-[(1S)-(2-Fluoro-6-methoxyphenoxy)(3-fluorophenyl)methyl] morpholine hydrochloride]: the Ki is 8 nM in experiment [1] and 1070 nM in experiment [2].

`COc1cc(F)ccc1O[C@@H](c1ccc(Cl)cc1)[C@@H]1CNCCO1` [Example 71, (2S)-2-[(1S)-(4-Chloro-phenyl) (4-fluoro-2-methoxyphenoxy)methyl] morpholine hydrochloride]: the results for the Ki in experiment [1] and in experiment [2] were 28.6 nM and 77.7 nM, respectively.

In the case of `Clc1cccc(O[C@@H](c2ccccc2)[C@@H]2CNCCO2)c1Cl` [Example 81, (2S)-2-[(1S)-(2,3-Dichlorophenoxy)phenylmethyl] morpholine fumarate], the inhibition constant (Ki) is 7.1 nM in experiment [1] and 26.4 nM in experiment [2].

With `COc1ccc(O[C@@H](c2ccccn2)[C@@H]2CNCCO2)c(Cl)c1` [Example 106, (2S)-2-[(1S)-(2-chloro-4-methoxyphenoxy)(pyridin-2-yl)methyl]morpholine fumarate], the Ki in experiment [1] turned out to be 13.8 nM; in experiment [2], 216 nM.

Regarding `Fc1cc(F)c(Cl)c(O[C@@H](c2ccccc2)[C@@H]2CNCCO2)c1` [Example 83, (2S)-2-[(1S)-(2-Chloro-3,5-difluorophenoxy)phenylmethyl]morpholine fumarate], the Ki in experiment [1] was 8.9 nM; in experiment [2], 222 nM.

Take `COc1cc(C(F)(F)F)ccc1O[C@@H](c1ccccc1)[C@@H]1CNCCO1` [Example 99, (2S)-2-[(1S)-(2-Methoxy-4-trifluoromethylphenoxy)phenylmethyl] morpholine fumarate]: the Ki in experiment [1] turned out to be 188 nM; in experiment [2] it was 35.8 nM.

With `COc1cc(Br)ccc1O[C@@H](c1ccccc1)[C@@H]1CNCCO1` [Example 94, (2S)-2-[(1S)-(4-Bromo-2-methoxyphenoxy)phenylmethyl] morpholine fumarate], the values for the Ki in experiment [1] and in experiment [2] were 12.1 nM and 22.3 nM, respectively.

With `Fc1cc(F)c(O[C@@H](c2ccccc2)[C@@H]2CNCCO2)c(F)c1` [Example 86, (2S)-2-[(1S)-Phenyl-(2,4,6-trifluorophenoxy)methyl] morpholine fumarate], the Ki in experiment [1] turned out to be 14.3 nM; in experiment [2], 652 nM.

For the compound `COc1cccc([C@H](Oc2ccc(F)cc2OC)[C@@H]2CNCCO2)c1` [Example 68, (2S)-2-[(1S)-(4-Fluoro-2-methoxyphenoxy) (3-methoxyphenyl)methyl] morpholine hydrochloride], the results for the Ki in experiment [1] and in experiment [2] were 20.1 nM and 408 nM, respectively.

With `COc1c(Cl)cccc1O[C@@H](c1ccccc1)[C@@H]1CNCCO1` [Example 92, (2S)-2-[(1S)-(3-Chloro-2-methoxyphenoxy)phenylmethyl] morpholine fumarate], the Ki in experiment [1] was found to be 86.8 nM; in experiment [2], 71.7 nM.

Take `Cc1cccc([C@H](Oc2cc(F)ccc2Cl)[C@@H]2CNCCO2)c1` [Example 59, (2S)-2-[(1S)-(2-Chloro-5-fluorophenoxy)-m-tolyl-methyl] morpholine hydrochloride]: the Ki in experiment [1] came out at 10.3 nM; in experiment [2], 524 nM.

In the case of `COc1cccc([C@H](Oc2cc(F)ccc2Cl)[C@@H]2CNCCO2)c1` [Example 69, (2S)-2-[(1S)-(2-Chloro-5-fluorophenoxy) (3-methoxyphenyl)methyl] morpholine hydrochloride], the inhibition constant Ki came out at 7.92 nM in experiment [1] and 687 nM in experiment [2].

As to `COc1ccc(C)cc1O[C@@H](c1cccc(F)c1)[C@@H]1CNCCO1` [Example 51, (2S)-2-[(1S)-(3-Fluorophenyl)-(2-methoxy-5-methylphenoxy)methyl] morpholine hydrochloride], the Ki in experiment [1] was found to be 26.6 nM; in experiment [2], 1040 nM.

Turning to `COc1cc(Cl)ccc1O[C@@H](c1ccc(Cl)cc1)[C@@H]1CNCCO1` [Example 73, (2S)-2-[(1S)-(4-Chloro-2-methoxyphenoxy) (4-chlorophenyl)methyl] morpholine hydrochloride], the Ki was 75.7 nM in experiment [1] and 14 nM in experiment [2].

For `COc1ccc(O[C@@H](c2cccc(C)c2)[C@@H]2CNCCO2)c(OC)c1` [Example 58, (2S)-2-[(1S)-(2,4-Dimethoxyphenoxy)-m-tolyl-methyl] morpholine hydrochloride], the Ki in experiment [1] worked out at 42.9 nM; in experiment [2], 474 nM.

For the compound `Fc1ccc([C@H](Oc2ccc(F)cc2Cl)[C@@H]2CNCCO2)cc1` [Example 74, (2S)-2-[(1S)-(2-Chloro-4-fluorophenoxy) (4-fluorophenyl)methyl] morpholine hydrochloride], the values for the Ki in experiment [1] and in experiment [2] were 18.6 nM and 138 nM, respectively.

In the case of `COc1cc(Cl)ccc1O[C@@H](c1cccc(C)c1)[C@@H]1CNCCO1` [Example 54, (2S)-2-[(1S)-(4-Chloro-2-methoxyphenoxy)-m-tolyl-methyl] morpholine hydrochloride], the results for the Ki in experiment [1] and in experiment [2] were 23.7 nM and 41.7 nM, respectively.

As for `COc1cccc([C@H](Oc2ccc(Cl)cc2OC)[C@@H]2CNCCO2)c1` [Example 61, (2S)-2-[(1S)-(4-Chloro-2-methoxyphenoxy) (3-methoxyphenyl)methyl] morpholine hydrochloride], the Ki was 20.1 nM in experiment [1] and 38 nM in experiment [2].

For the compound `COc1cc(C)ccc1O[C@H](c1ccc(F)cc1)[C@H]1CNCCO1` [Example 43, (2R)-2-[(1R)-(2-Methoxy-4-methylphenoxy)4-Fluorophenyl) methyl] morpholine hydrochloride], the Ki in experiment [1] came out at 1700 nM; in experiment [2], 4.7 nM.

For `Fc1cccc([C@H](Oc2c(F)cccc2Cl)[C@@H]2CNCCO2)c1` [Example 60, (2S)-2-[(1S)-(2-Chloro-6-fluorophenoxy) (3-fluorophenyl)methyl] morpholine hydrochloride], the Ki in experiment [1] stood at 1.91 nM; in experiment [2] it was 314 nM.

Turning to `Fc1cccc([C@H](Oc2c(F)cc(F)cc2F)[C@@H]2CNCCO2)c1` [Example 65, (2S)-2-[(1S)-(3-Fluorophenyl) (2,4,6-trifluorophenoxy)methyl] morpholine hydrochloride], the Ki was found to be 15.7 nM in experiment [1] and 511 nM in experiment [2].

Consider `Fc1cccc([C@H](Oc2ccc(F)cc2F)[C@@H]2CNCCO2)c1` [Example 64, (2S)-2-[(1S)-(2,4-Difluorophenoxy) (3-fluoro-phenyl)methyl] morpholine hydrochloride], for which the Ki in experiment [1] is 13.8 nM; in experiment [2], 511 nM.

Consider `COc1ccc(Cl)c(O[C@@H](c2ccccc2)[C@@H]2CNCCO2)c1` [Example 97, (2S)-2-[(1S)-(2-Chloro-5-methoxyphenoxy)phenylmethyl] morpholine fumarate], for which the Ki in experiment [1] is 42.5 nM; in experiment [2], 134 nM.

What is called Ki is a measure of affinity in units of concentration, obtained from inhibition or displacement.

For the origin of these results see patent publication US20080161309A1, “Novel Compounds” (priority 2004, published 2008).
